The record followed here is patent publication US9193989B2, “PRPK-TPRKB modulators and uses thereof” (TAIHO PHARMACEUTICAL CO., LTD., priority 2010, dated 2015).

The target in one assay is T1, PRPK/TPRKB (Homo sapiens, UniProt Q96S44+Q9Y3C4).
T1 construct: host or cells: HEK-293FT
Nature of the assay: Competition for PRPK/TPRKB binding to the pomalidomide-based affinity reagent (affigel pulldown). The conditions noted are these: FIG. 4; excess free competitor. As to the method: Cell lysates were prepared from 2×10^8 Jeko-1, Jurkat, or HS-Sultan cells or 5×10^7 HeLa S3 cells per pulldown sample by lysis in 2 mL Buffer B (50 mM HEPES pH 7.5, 5% glycerol, 1.5 mM MgCl2, 150 mM NaCl, 1 mM Na3VO4, 25 mM NaF, 0.4% Nonidet P-40, 1 mM DTT, and 1 Complete Mini EDTA-free protease inhibitor tablet per 10-25 mL Buffer B). Lysates were incubated on ice for 30 mM, followed by 2× freeze-thaw using liquid N2 and 37° C. water bath in polypropylene tubes. Samples were centrifuged at 1800 rpm for 5 mM at 4° C. Supernatants were ultracentrifuged at 55,000 rpm for 1 hr at 4° C. Supernatants were collected and pre-cleared with 10 μL control affigel reagent (affigel-ethanolamine or affigel-PEG linker) by incubation on a rotator for 30 mM at 4° C. Pre-cleared lysates were transferred to Mobicol 1 mL columns with 90 μm pore size frit on ice and centrifuged at 0.1 rcf for 10 sec to separate affigel beads from lysates. Incubations with pre-cleared lysates and excess pomalidomide were performed at a 20-fold excess competitor concentration (500 μM final concentration) on a rotator for 30 mM at 4° C. Subsequently, 10 μL control or pomalidomide-based affigel reagents were added to each sample and pulldowns were performed for 1 hr at 4° C. Lysates and affigel reagents were transferred to Mobicol 1 mL columns with 90 μm pore size frit and affigel beads were washed 3× with 800 μL Buffer B and 2× with 800 μL Buffer A (Buffer B not including 0.4% Nonidet P-40). Columns were centrifuged for 30 sec at 0.1 rcf to remove any remaining wash buffer and then closed with lower plug. Columns were placed in 1.5 mL Low-binding Eppendorf tubes and heated at 50° C. for 30 mM in 40 uL 2×SDS sample buffer with 10 mM DTT to elute bound proteins from affigel reagents. Columns were then opened and eluents were collected in the low-binding Eppendorf tubes by 15 sec centrifugation at 1600 rpm. Samples were applied and resolved on 4-12% SDS-PAGE gels followed by silver staining (SilverQuest Kit, Invitrogen, Carlsbad, Calif.). Bands which were competed by excess actimid competitor but not by DMSO were excised and identified by LC/MS/MS analysis at the Beth Israel Deaconess Medical Center Mass Spectrometry Core Facility (Boston, Mass.).
C-term Myc-DDK tagged PRPK and C-term Myc-DDK tagged TPRKB proteins were transiently overexpressed from cDNAs (obtained from Origene, Rockville, Md.) in HEK-293FT cells using FuGENE-6 transfection reagent according to the manufacturer's protocol (Roche, Indianapolis, Ind.). One day prior to transfection, 2.5×10^6 HEK-293FT cells were plated per p100 dish. Cells were lysed 48 hr post-transfection in 1-2 mL Buffer B per p100 dish per sample. […] The amount of PRPK and TPRKB captured by each affinity reagent was determined by silver stain and anti-DDK (anti-DDK monoclonal antibody, Origene) Western blot. Competition experiments were also performed using a variety of compounds and derivatives (pomalidomide, lenalidomide, thalidomide, CMPD 31, CMPD 30, CMPD 29).

Assay [1] relates to IL-2 production by Jurkat and PBMCs. The assay can be described thus: IL-2 production assay, inhibition with CMPD 31. Type of assay: cell-based, human. The conditions noted are these: FIG. 8; CMPD 31 at final concentration of 10 μM. From the text: This protocol describes the technique to detect the amount of IL-2 produced by Jurkat and PBMCs in 96-well format. This assay was used to calculate IL-2 production EC50 values of lenalidomide, pomalidomide, all derivatives and inhibition with CMPD 31.
Logarithmically growing Jurkat cells from ATCC (clone E6-1) or frozen and thawed human PBMCs from Astarte (Peripheral Blood Mononuclear Cells, normal Donor 41) were resuspended at 1×10^6 cells/mL in RPMI-1640 medium containing 10% FBS and 1% antibiotic/antimycotic solution. Cells were plated into each well of a 96-well anti-CD3 plate (Becton Dickinson catalogue number #354725) at 1×10^5 cells/100 μl per well. […]
Compound daughter plates were resuspended in 200 μL of RPMI-1640 medium as a 10× stock and then 20 μL of the 10× stock was added to each anti-CD3 antibody assay plate well with a final volume of 200 μl by the addition of 80 μl of complete media. […] The amount of IL-2 produced was determined by an ELISA assay and was performed in one of two ways as per manufacturer instructions; by a standard ELISA (Enzyme-Linked Immunosorbent Assay) protocol method (Becton Dickinson) or an AlphaLISA protocol (Perkin Elmer). […]

The next assay has as its system B cell growth. Nature of the assay: Growth inhibition assay, inhibition with CMPD 31. The format is cell-based. The conditions noted are these: FIG. 8; CMPD 31 at final concentration of 10 μM. As to the method:
This protocol describes the technique to perform growth inhibition assays in 96-well format. This assay was used to calculate growth inhibition IC50 values of lenalidomide, pomalidomide, all derivatives and inhibition with CMPD31.
Cell lines Jurkat, NCI-H929, and JeKo-1 were obtained from ATCC and were maintained by vendor-specified media requirements. Cells were plated in 96-well plates at 3,750 cells per well (Jeko-1, HS-Sultan) or 5,000 cell per well (NCI-H929) in 90 μL of assay growth medium (RPMI-1640, 10% FBS, 1% pen-strep). Cells in plates were allowed to incubate at room temperature for one hour and then transferred to an incubator set at 37° C. and 5% CO2 humidified air overnight.
Compounds were serially diluted 3-fold in 100% DMSO into duplicate 10-point dose curves using a Biomek FX liquid handler in columns 2 through 11 of a 96-well U-bottom plate. Starting concentrations of compounds was 10 mM. Daughter plates containing 2 μL of the compound dose curves were stamped and stored at −80 C. […]
Compound and control daughter plates were diluted 100-fold in 200 μl of assay growth medium and then finally diluted 10-fold more into the 96-well cell plates; a final dilution of 1000-fold in 0.1% DMSO for all wells. […] Plates were incubated for 2 hours at 37° C. in 5% CO2 and then plates were read on a Perkin Elmer Victor^3 V plate reader with excitation at 560 nm and emission at 590 nm. […]

In assay [2] the test system is natural killer cells in PBMCs. The assay can be described thus: Natural killer cell assay (DELFIA NK lytic activity). Type of assay: cell-based, human. The conditions noted are these: FIG. 9; anti-CD3 stimulated PBMCs, 72 hours. Here is the method: On the day of initial treatment, cryopreserved peripheral blood mononuclear cells from a healthy donor (PBMCs; Astarte Biologics) were thawed in RPMI-1640 containing 10% fetal bovine serum, 1% penicillin-streptomycin and 25 mM HEPES buffer (complete medium) at 37° C. PBMCs were centrifuged two times at 1000 rpm to remove residual DMSO and debris and counted on a haemocytometer. Cells were used at a final cell density of 1×10^6 cells per mL in complete medium. […]
Following the 72 hour treatment, NK cells were assayed for lytic activity using the DELFIA cell cytoxicity assay from Perkin-Elmer according to manufacturer's instructions. […] K562 cells were resuspended in DMEM containing 10% fetal bovine serum and 1% penicillin-streptomycin, counted on a hemacytometer and diluted to 1×10^6 cells per mL. […] Europium solution (200 μL) was added to the supernatants and the plate was placed on a Wallac Victor microplate reader. Following a 15 minute orbital shake at high speed, the plate was read using time-resolved fluorescence (Excitation at 340 nm, Emission at 615 nm; delay 400 μsec; counting window 400 μsec, cycle 1000 μsec). […]

T1 sequence (Q96S44 whole entry, other chains not shown): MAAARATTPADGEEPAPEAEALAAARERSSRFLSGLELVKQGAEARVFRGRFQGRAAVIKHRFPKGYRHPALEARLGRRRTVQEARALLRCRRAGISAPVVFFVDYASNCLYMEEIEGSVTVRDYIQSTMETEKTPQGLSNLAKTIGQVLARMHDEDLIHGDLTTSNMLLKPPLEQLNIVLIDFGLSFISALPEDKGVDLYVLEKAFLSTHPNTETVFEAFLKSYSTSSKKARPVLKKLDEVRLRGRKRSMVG

`CN1C(=O)CCC(N2C(=O)c3cccc(N)c3C2=O)C1=O` (stereo not shown) [CMPD 29, 4-Amino-2-(1-methyl-2,6-dioxopiperidin-3-yl)isoindoline-1,3-dione]: at PRPK/TPRKB, the “compete for PRPK/TPRKB target binding to the pomalidomide-based affinity reagent” value (“compete for PRPK/TPRKB target binding” for short) is listed as “compete”. Still for that read-out and setting: the value for `Nc1cccc2c1C(=O)N([C@H]1CCC(=O)NC1)C2=O` [CMPD 30, (S)-4-Amino-2-(6-oxopiperidin-3-yl)isoindoline-1,3-dione] was “does not”.

`Nc1ccc2c(c1)C(=O)N(C1CCC(=O)NC1=O)C2=O` (stereo not shown) [CMPD 31]: in assay [1], the “suppression of the activity of lenalidomide and pomalidomide in induction of IL-2 production” value is recorded as “suppresses”. For the same compound, in the assay on B cell growth, the “suppression of the activity of lenalidomide and pomalidomide in inhibition of B cell growth” value was “suppresses”. Besides, on PRPK/TPRKB, the “compete for PRPK/TPRKB target binding” value is recorded as “compete”. As to `Nc1cccc2c1CN(C1CCC(=O)NC1=O)C2=O` (stereo not shown) [lenalidomide], the “natural killer cell activation in PBMCs” value in assay [2] was “activation”. Besides, the “compete for PRPK/TPRKB target binding” value at PRPK/TPRKB is “compete”.

With `Nc1cccc2c1C(=O)N(C1CCC(=O)NC1=O)C2=O` (stereo not shown) [pomalidomide], the “natural killer cell activation in PBMCs” value in assay [2] was “activation”. On PRPK/TPRKB, the “compete for PRPK/TPRKB target binding” value is listed as “compete”. For `O=C1CCC(N2C(=O)c3ccccc3C2=O)C(=O)N1` (stereo not shown) [thalidomide], the “compete for PRPK/TPRKB target binding” value on PRPK/TPRKB is given as “compete”.
